Data on 14 compounds can be found in publication PMC6270635, “Phenolic Esters of O-Desmethylvenlafaxine with Improved Oral Bioavailability and Brain Uptake” (Molecules, 2013).

For the first series the following is noted: cited from earlier work.
On to `CN(C)CC(c1ccc(O)cc1)C1(O)CCCCC1` (stereo not shown) [ODV, O-Desmethylvenlafaxine], for which the bioavailability in humans entry is recorded as “ca. 80%”.

Details of a further series: method as in PMID 21925241. The note with it: rat, oral administration; cited from earlier work.
For `COc1ccc(C(=O)Oc2ccc(C(CN(C)C)C3(O)CCCCC3)cc2)cc1` (stereo not shown) [1k, 4-(2-(Dimethylamino)-1-(1-hydroxycyclohexyl)ethyl)phenyl 4-methoxybenzoate], the “relative bioavailability compared with ODV” value is given as “higher relative bioavailability than ODV”.

On the set-up of the next series: method as in PMID 23517291, PMID 23334675. The note with it: ODV as the succinate salt; cited from earlier work.
As to `CN(C)CC(c1ccc(O)cc1)C1(O)CCCCC1` (stereo not shown) [ODV, O-Desmethylvenlafaxine], the minimum effective dose is on record as 50 mg/day.

Conditions in another series: not given
For orientation: melting point means the temperature of the solid-liquid transition. As to `CN(C)CC(c1ccc(OC(=O)C(C)(C)C)cc1)C1(O)CCCCC1` (stereo not shown) [1a, 4-(2-(Dimethylamino)-1-(1-hydroxycyclohexyl)ethyl)phenyl pivalate], the melting point is 131 to 133 °C.

`CN(C)CC(c1ccc(OC(=O)C2CCCCC2)cc1)C1(O)CCCCC1` (stereo not shown) [1b, 4-(2-(Dimethylamino)-1-(1-hydroxycyclohexyl)ethyl)phenyl cyclohexanecarboxylate] registered a melting point of 122 to 124 °C.

`CC1CCC(C(=O)Oc2ccc(C(CN(C)C)C3(O)CCCCC3)cc2)CC1` (stereo not shown) [1c, 4-(2-(Dimethylamino)-1-(1-hydroxycyclohexyl)ethyl)phenyl 4-methylcyclohexanecarboxylate] gave a melting point of 157 to 159 °C.

With `CC(C)C1CCC(C(=O)Oc2ccc(C(CN(C)C)C3(O)CCCCC3)cc2)CC1` (stereo not shown) [1d, 4-(2-(Dimethylamino)-1-(1-hydroxycyclohexyl)ethyl)phenyl 4-isopropylcyclohexanecarboxylate], the melting point fell in the range of 149 to 152 °C.

Regarding `CN(C)CC(c1ccc(OC(=O)C2CCCCCC2)cc1)C1(O)CCCCC1` (stereo not shown) [1e, 4-(2-(Dimethylamino)-1-(1-hydroxycyclohexyl)ethyl)phenyl cycloheptanecarboxylate], the melting point fell in the range of 110 to 112 °C.

`CN(C)CC(c1ccc(OC(=O)c2ccoc2)cc1)C1(O)CCCCC1` (stereo not shown) [1g, 4-(2-(Dimethylamino)-1-(1-hydroxycyclohexyl)ethyl)phenyl furan-3-carboxylate] returned a melting point of 159 to 162 °C.

`CN(C)CC(c1ccc(OC(=O)c2ccsc2)cc1)C1(O)CCCCC1` (stereo not shown) [1h, 4-(2-(Dimethylamino)-1-(1-hydroxycyclohexyl)ethyl)phenyl thiophene-3-carboxylate]: the melting point is 168 to 172 °C.

In turn, `CN(C)CC(c1ccc(OC(=O)c2cccnc2)cc1)C1(O)CCCCC1` (stereo not shown) [1i, 4-(2-(Dimethylamino)-1-(1-hydroxycyclohexyl)ethyl)phenyl nicotinate] gave a melting point of 180 to 182 °C.

The compound `COc1ccc(C(=O)Oc2ccc(C(CN(C)C)C3(O)CCCCC3)cc2)cc1` (stereo not shown) [1k, 4-(2-(Dimethylamino)-1-(1-hydroxycyclohexyl)ethyl)phenyl 4-methoxybenzoate] yielded a melting point of 133 to 137 °C.

For the compound `CN(C)CC(c1ccc(OC(=O)CCc2ccccc2)cc1)C1(O)CCCCC1` (stereo not shown) [1l, 4-(2-(Dimethylamino)-1-(1-hydroxycyclohexyl)ethyl)phenyl 3-phenylpropanoate], the melting point lay in the range of 124 to 127 °C.

The compound `CN(C)CC(c1ccc(OC(=O)C=Cc2ccccc2)cc1)C1(O)CCCCC1` (stereo not shown) [1m, 4-(2-(Dimethylamino)-1-(1-hydroxycyclohexyl)ethyl)phenyl cinnamate] had a melting point of 118 to 122 °C.

As to `CN(C)CC(c1ccc(OC(=O)c2ccc3c(c2)OCO3)cc1)C1(O)CCCCC1` (stereo not shown) [1n, 4-(2-(Dimethylamino)-1-(1-hydroxycyclohexyl)ethyl)phenyl benzo[d][1,3]dioxole-5-carboxylate], the melting point lay within 154 to 157 °C.

Regarding `CN(C)CC(c1ccc(OC(=O)c2ccc3c(c2)OCCO3)cc1)C1(O)CCCCC1` (stereo not shown) [1o, 4-(2-(Dimethylamino)-1-(1-hydroxycyclohexyl)ethyl)phenyl 2,3-dihydrobenzo[b][1,4]dioxine-6-carboxylate], the melting point was in the range of 159 to 162 °C.
